Measurements from ChEMBL document CHEMBL4725335, “Deciphering the robustness of pyrazolo-pyridine carboxylate core structure-based compounds for inhibiting α-synuclein in transgenic C. elegans model of Synucleinopathy” (Bioorg Med Chem, 2020).
Active and inactive are the calls of the source. The rule behind the calls is not given here.

How the values were obtained:
[1] = target: Alpha-synuclein (Homo sapiens) (UniProt P37840); assay: Inhibition of human alpha-synuclein aggregation expressed in transgenic Caenorhabditis elegans NL5901 assessed as decrease in alpha-synuclein expression at 1% after 48 hrs by fluorescence microscopy analysis
[2] = target: Alpha-synuclein (Homo sapiens) (UniProt P37840); assay: Inhibition of human alpha-synuclein aggregation expressed in transgenic Caenorhabditis elegans NL5901 by measuring fluorescence intensity at 1% incubated for 48 hrs by fluorescence microscopy analysis relative to control

SMILES | inhibition [1] | fold change (FC) [2] | inhibition [2]
CCOC(=O)c1cnc2c(cnn2-c2ccccc2)c1N1CCN(C)CC1 | Active | 2.4 | 53%
CCOC(=O)c1cnc2c(cnn2-c2ccccc2)c1N1CCOCC1 | Active | – | 30.2%
CCOC(=O)c1cnc2c(cnn2-c2ccccc2)c1Oc1cccc2cccnc12 | Active | – | 24.4%
CCOC(=O)c1cnc2c(cnn2-c2ccccc2)c1N1CCN(c2cc(C)nc3ncnn23)CC1 | Active | – | 31.9%
CCOC(=O)c1cnc2c(cnn2-c2cccc(C(F)(F)F)c2)c1N1CCN(c2ncccc2C#N)CC1 | Active | – | 27.3%
CCOC(=O)c1cnc2c(cnn2-c2ccccc2)c1N1CCN(c2cc(=O)[nH]c3ccccc23)CC1 | Active | – | 14.7%
CCOC(=O)c1cnc2c(cnn2-c2ccccc2)c1N1CCN(S(=O)(=O)c2ccc(NC(C)=O)cc2)CC1 | Active | – | 17.7%
CCOC(=O)c1cnc2c(cnn2-c2ccccc2)c1N1CCN(c2ccnc3cc(Cl)ccc23)CC1 | Active | 1.7 | 39.2%
CCOC(=O)c1cnc2c(cnn2-c2ccccc2F)c1N1CCN(c2ncccc2C#N)CC1 | Active | – | 26.1%
CCOC(=O)c1cnc2c(cnn2-c2ccc(F)c(F)c2)c1N1CCN(c2ncccc2C#N)CC1 | Active | – | 13.5%
CCOC(=O)c1cnc2c(cnn2-c2ccccc2)c1N1CCN(c2cc(C(F)(F)F)nc3ncnn23)CC1 | Active | – | 14.1%
CCOC(=O)c1cnc2c(cnn2-c2ccccc2)c1N1CCN(c2ncccc2C#N)CC1 | Active | – | 33.1%
CCOC(=O)c1cnc2c(cnn2-c2ccccc2)c1N1CCCCC1 | Active | 1.5 | 47.7%
